Laboratory results taken from patent US4670461A, “Formaldehyde derivatives of mitindomide” (priority 1984, dated 1987).
Where a name gives a salt, the structure may show the parent alone.

What was measured:
P388 = test: IP P388, Days 1-9 (NCI murine test system); type: in vivo; settings: IP P388, Days 1-9, dose 68.8
Procedure: Anti-tumor or anti-neoplastic activity of the novel derivatives of the present invention is determined by using the murine test system for screening anti-cancer compounds as standardized by the National Cancer Institute, Bethesda, Md., U.S.A., and described in Cancer Chemotherapy Reports, 3 (2) 1-103 (1972) which publication is incorporated herein by reference.
It is noted that although the intraperitoneal mode of administration of the novel derivatives is preferred, other modes of parenteral administration, e.g. subcutaneous, intravenous, etc., are, of course, possible and included within the purview of this invention. Similarly, although water has been used as a vehicle for the administration of the compounds of the present invention, other pharmaceutically acceptable vehicles, e.g. saline, buffers, and other aqueous media may also be used for the administration of these compounds together with adjuvants, agents or additives commonly employed in the preparation of pharmaceutical compositions. Examples of such agents, additives and adjuvants that may be employed are listed in Instruction 14, Screening Data Summary Interpretation and Outline of Clinical Screen. Drug Evaluation Branch, NCI. and are incorporated herein by reference.

L1210 leukemia [1] = test: S.C. implanted L1210 leukemia in mice (CD2F1); type: in vivo
Excerpt: ^a Experimental formulation of mitindomide was used (NaOH + manitol).

L1210 leukemia [2] = test: IP implanted L1210 leukemia in mice (CD2F1); type: in vivo
Water solubility = type: physicochemical; settings: water
[3] = background section; cited from earlier work
[4] = system: certain experimental tumor systems; settings: Pettit et al, Can. J. Chem. 61, 2291-2294 (1983); cited from earlier work
[5] = 24.8 mg/kg ip days 1-9, Expt. 1
[6] = 24.8 mg/kg ip days 1-9, Expt. 2
[7] = 41.3 mg/kg ip days 1-9, Expt. 1
[8] = 41.3 mg/kg ip days 1-9, Expt. 2
[9] = 68.8 mg/kg ip days 1-9, Expt. 1
[10] = 68.8 mg/kg ip days 1-9, Expt. 2
[11] = 114.7 mg/kg ip days 1-9, Expt. 1
[12] = 24.8 mg/kg IP days 1-9, Expt. 1
[13] = 24.8 mg/kg IP days 1-9, Expt. 2
[14] = 24.8 mg/kg IP days 1-9, Expt. 3
[15] = 41.3 mg/kg IP days 1-9, Expt. 1
[16] = 41.3 mg/kg IP days 1-9, Expt. 2
[17] = 41.3 mg/kg IP days 1-9, Expt. 3
[18] = 68.8 mg/kg IP days 1-9, Expt. 1
[19] = 68.8 mg/kg IP days 1-9, Expt. 2
[20] = 68.8 mg/kg IP days 1-9, Expt. 3
[21] = 114.7 mg/kg IP days 1-9, Expt. 1
[22] = 114.7 mg/kg IP days 1-9, Expt. 2
[23] = 114.7 mg/kg IP days 1-9, Expt. 3
[24] = 18.0 mg/kg ip days 1-9, Expt. 1
[25] = 18.0 mg/kg ip days 1-9, Expt. 2
[26] = 30.0 mg/kg ip days 1-9, Expt. 1
[27] = 30.0 mg/kg ip days 1-9, Expt. 2
[28] = 50.0 mg/kg ip days 1-9, Expt. 1
[29] = 50.0 mg/kg ip days 1-9, Expt. 2
[30] = 83.3 mg/kg ip days 1-9, Expt. 1
[31] = 18.0 mg/kg IP days 1-9, Expt. 1
[32] = 18.0 mg/kg IP days 1-9, Expt. 2
[33] = 18.0 mg/kg IP days 1-9, Expt. 3
[34] = 30.0 mg/kg IP days 1-9, Expt. 1
[35] = 30.0 mg/kg IP days 1-9, Expt. 2
[36] = 30.0 mg/kg IP days 1-9, Expt. 3
[37] = 50.0 mg/kg IP days 1-9, Expt. 1
[38] = 50.0 mg/kg IP days 1-9, Expt. 2
[39] = 50.0 mg/kg IP days 1-9, Expt. 3
[40] = 83.3 mg/kg IP days 1-9, Expt. 1
[41] = 83.3 mg/kg IP days 1-9, Expt. 2
[42] = 83.3 mg/kg IP days 1-9, Expt. 3

CN1CCN(CN2C(=O)C3C4C=CC(C3C2=O)C2C3C(=O)N(CN5CCN(C)CC5)C(=O)C3C42)CC1 (stereo not shown) [Example 4, 4,8-Ethenopyrrolo[3',4':3,4]cyclobut[1,2-f]isoindole-1,3,5,7(2H,6H)-tetrone,3a,3b,4,4a,7a,8,8a,8b-octahydro-2,6-bis(N-methylpiperazinomethyl)di-hydrochloride]
T/C (P388): 172 | ILS (L1210 leukemia [1]; [5]): 18% | MST (L1210 leukemia [1]; [5]): 9.7 days | Wt. Change (L1210 leukemia [1]; [5]): -0.2 g | ILS (L1210 leukemia [1]; [6]): 12% | MST (L1210 leukemia [1]; [6]): 12.0 days | Wt. Change (L1210 leukemia [1]; [6]): 0.3 g | ILS (L1210 leukemia [1]; [7]): 50% | MST (L1210 leukemia [1]; [7]): 12.3 days | Wt. Change (L1210 leukemia [1]; [7]): -1.6 g | ILS (L1210 leukemia [1]; [8]): 21% | MST (L1210 leukemia [1]; [8]): 13.0 days | Wt. Change (L1210 leukemia [1]; [8]): -1.5 g | ILS (L1210 leukemia [1]; [9]): 74% | MST (L1210 leukemia [1]; [9]): 14.3 days | Wt. Change (L1210 leukemia [1]; [9]): -4.2 g | ILS (L1210 leukemia [1]; [10]): 58% | MST (L1210 leukemia [1]; [10]): 17.0 days | Wt. Change (L1210 leukemia [1]; [10]): -2.9 g | ILS (L1210 leukemia [1]; [11]): 135% | MST (L1210 leukemia [1]; [11]): 19.3 days | Wt. Change (L1210 leukemia [1]; [11]): -4.7 g | Wt. Change (L1210 leukemia [1]; 114.7 mg/kg ip days 1-9, Expt. 2): -4.0 g | Wt. Change (L1210 leukemia [1]; 191.2 mg/kg ip days 1-9, Expt. 2): -6.6 g | ILS (L1210 leukemia [2]; [12]): 2% | MST (L1210 leukemia [2]; [12]): 8.9 days | Wt. Change (L1210 leukemia [2]; [12]): 2.5 g | ILS (L1210 leukemia [2]; [13]): 5% | MST (L1210 leukemia [2]; [13]): 8.4 days | Wt. Change (L1210 leukemia [2]; [13]): 0.8 g | ILS (L1210 leukemia [2]; [14]): 9% | MST (L1210 leukemia [2]; [14]): 9.0 days | Wt. Change (L1210 leukemia [2]; [14]): 0.3 g | ILS (L1210 leukemia [2]; [15]): 24% | MST (L1210 leukemia [2]; [15]): 10.8 days | Wt. Change (L1210 leukemia [2]; [15]): 1.4 g | ILS (L1210 leukemia [2]; [16]): 47% | MST (L1210 leukemia [2]; [16]): 11.8 days | Wt. Change (L1210 leukemia [2]; [16]): -2.6 g | ILS (L1210 leukemia [2]; [17]): 34% | MST (L1210 leukemia [2]; [17]): 11.0 days | Wt. Change (L1210 leukemia [2]; [17]): -1.5 g | ILS (L1210 leukemia [2]; [18]): 83% | MST (L1210 leukemia [2]; [18]): 16.0 days | Wt. Change (L1210 leukemia [2]; [18]): -1.7 g | ILS (L1210 leukemia [2]; [19]): 78% | MST (L1210 leukemia [2]; [19]): 14.3 days | Wt. Change (L1210 leukemia [2]; [19]): -4.1 g | ILS (L1210 leukemia [2]; [20]): 119% | MST (L1210 leukemia [2]; [20]): 18.0 days | Wt. Change (L1210 leukemia [2]; [20]): -3.2 g | ILS (L1210 leukemia [2]; [21]): 3% | MST (L1210 leukemia [2]; [21]): 9.0 days | Wt. Change (L1210 leukemia [2]; [21]): -2.6 g | ILS (L1210 leukemia [2]; [22]): 110% | MST (L1210 leukemia [2]; [22]): 16.8 days | Wt. Change (L1210 leukemia [2]; [22]): -5.3 g | ILS (L1210 leukemia [2]; [23]): 143% | MST (L1210 leukemia [2]; [23]): 20.0 days | Wt. Change (L1210 leukemia [2]; [23]): -4.6 g | Wt. Change (L1210 leukemia [2]; 191.2 mg/kg IP days 1-9, Expt. 3): -7.1 g | H2O Sol. % (g per 100 ml H2O) (Water solubility): 10 % (g per 100 ml H2O)

O=C1NC(=O)[C@H]2[C@H]3C=C[C@@H]([C@@H]12)[C@@H]1[C@H]2C(=O)NC(=O)[C@H]2[C@H]31 [Mitindomide, 4,8-Ethenopyrrolo[3',4':3,4]cyclobut[1,2-f]-isoindole-1,3,5,7(2H,6H) tetrone, octahydro]
ILS (L1210 leukemia [1]; [24]): 21% | MST (L1210 leukemia [1]; [24]): 10.0 days | Wt. Change (L1210 leukemia [1]; [24]): 0.0 g | ILS (L1210 leukemia [1]; [25]): 12% | MST (L1210 leukemia [1]; [25]): 12.0 days | Wt. Change (L1210 leukemia [1]; [25]): -0.1 g | ILS (L1210 leukemia [1]; [26]): 50% | MST (L1210 leukemia [1]; [26]): 12.3 days | Wt. Change (L1210 leukemia [1]; [26]): -3.8 g | ILS (L1210 leukemia [1]; [27]): 42% | MST (L1210 leukemia [1]; [27]): 15.3 days | Wt. Change (L1210 leukemia [1]; [27]): -1.6 g | ILS (L1210 leukemia [1]; [28]): 92% | MST (L1210 leukemia [1]; [28]): 15.8 days | Wt. Change (L1210 leukemia [1]; [28]): -4.3 g | ILS (L1210 leukemia [1]; [29]): 136% | MST (L1210 leukemia [1]; [29]): 25.3 days | Wt. Change (L1210 leukemia [1]; [29]): -4.2 g | ILS (L1210 leukemia [1]; [30]): 6% | MST (L1210 leukemia [1]; [30]): 8.7 days | Wt. Change (L1210 leukemia [1]; [30]): -5.6 g | Wt. Change (L1210 leukemia [1]; 83.3 mg/kg ip days 1-9, Expt. 2): -5.6 g | ILS (L1210 leukemia [2]; [31]): 3% | MST (L1210 leukemia [2]; [31]): 9.0 days | Wt. Change (L1210 leukemia [2]; [31]): 2.3 g | ILS (L1210 leukemia [2]; [32]): 10% | MST (L1210 leukemia [2]; [32]): 8.8 days | Wt. Change (L1210 leukemia [2]; [32]): -0.7 g | ILS (L1210 leukemia [2]; [33]): 13% | MST (L1210 leukemia [2]; [33]): 9.3 days | Wt. Change (L1210 leukemia [2]; [33]): 0.3 g | ILS (L1210 leukemia [2]; [34]): 49% | MST (L1210 leukemia [2]; [34]): 13.0 days | Wt. Change (L1210 leukemia [2]; [34]): 1.2 g | ILS (L1210 leukemia [2]; [35]): 66% | MST (L1210 leukemia [2]; [35]): 13.3 days | Wt. Change (L1210 leukemia [2]; [35]): -3.1 g | ILS (L1210 leukemia [2]; [36]): 86% | MST (L1210 leukemia [2]; [36]): 15.3 days | Wt. Change (L1210 leukemia [2]; [36]): -2.2 g | ILS (L1210 leukemia [2]; [37]): 60% | MST (L1210 leukemia [2]; [37]): 14.0 days | Wt. Change (L1210 leukemia [2]; [37]): 0.2 g | ILS (L1210 leukemia [2]; [38]): 103% | MST (L1210 leukemia [2]; [38]): 16.3 days | Wt. Change (L1210 leukemia [2]; [38]): -3.9 g | ILS (L1210 leukemia [2]; [39]): 156% | MST (L1210 leukemia [2]; [39]): 21.0 days | Wt. Change (L1210 leukemia [2]; [39]): -2.8 g | ILS (L1210 leukemia [2]; [40]): 6% | MST (L1210 leukemia [2]; [40]): 9.3 days | Wt. Change (L1210 leukemia [2]; [40]): -2.5 g | ILS (L1210 leukemia [2]; [41]): 12% | MST (L1210 leukemia [2]; [41]): 9.0 days | Wt. Change (L1210 leukemia [2]; [41]): -5.8 g | ILS (L1210 leukemia [2]; [42]): -3% | MST (L1210 leukemia [2]; [42]): 8.0 days | Wt. Change (L1210 leukemia [2]; [42]): -4.5 g | Wt. Change (L1210 leukemia [2]; 138.9 mg/kg IP days 1-9, Expt. 1): -5.6 g | Wt. Change (L1210 leukemia [2]; 138.9 mg/kg IP days 1-9, Expt. 3): -5.5 g | solubility in water [3]: virtually insoluble in water | inhibitory activity against certain experimental tumor systems [4]: strong inhibitory activity
